Assay results reported in paper PMC12578646, “Prodrug florfenicol amine is activated by intrinsic resistance to target Mycobacterium abscessus” (Nature Microbiology, 2025).
≈ marks a conversion by molar mass, not a printed value.

Key:
M. abscessus WT = test system: T1, M. abscessus WT; assay: microbe, parasite or virus in culture; set-up: broth microdilution MIC according to CLSI, read at 14 days; settings: Mycobacteroides abscessus, 336 h, read-out: WT MIC (µg/mL), day 14
T1 construct: ATCC 19977

in vitro = assay: in vitro; set-up: HepG2 cytotoxicity, Cell-Titer Glo; settings: human, hepg2 cells; read-out: HepG2 Cytotoxicity IC50
Procedure: (§1) MPS and cytotoxicity of experimental compounds and PTC-targeting controls against HepG2 (liver hepatocellular carcinoma cells ATCC HB-8065) were performed as previously described without any modifications (see ref. [56] for MPS assay and ref. [78] for cytotoxicity assay). […] Results reported as mean ± s.d., n = 3 biological replicate. The requirement for FF-NH2 to be activated by Eis2 led us to hypothesize that it would lack the mitochondrial protein synthesis (MPS) inhibition liability of other PTC-targeting agents. We therefore profiled FF-NH2, FF-ac and other analogues for MPS inhibition activity.

[1] = test system: HepG2 mitochondrial protein synthesis; assay: cells; set-up: mitochondrial protein synthesis inhibition in HepG2 cells; settings: Homo sapiens, read-out: MPS IC50
Procedure: as §1, with “MPS inhibition and cytotoxicity assays MPS and” for “MPS and”

Eis2 [2] = molecular target: T2, Eis2 (Mycobacteroides abscessus, UniProt B1MKV6); assay: Michaelis-Menten acetylation kinetics with purified Eis2, DTNB free-thiol assay (control substrate); assay type: biochemical
T2 construct: gene MAB_4532c; Eis2–pET30a, TEV cleavable N-terminal 6 histidine tag (removed)
T2 sequence (B1MKV6 entry or part of it): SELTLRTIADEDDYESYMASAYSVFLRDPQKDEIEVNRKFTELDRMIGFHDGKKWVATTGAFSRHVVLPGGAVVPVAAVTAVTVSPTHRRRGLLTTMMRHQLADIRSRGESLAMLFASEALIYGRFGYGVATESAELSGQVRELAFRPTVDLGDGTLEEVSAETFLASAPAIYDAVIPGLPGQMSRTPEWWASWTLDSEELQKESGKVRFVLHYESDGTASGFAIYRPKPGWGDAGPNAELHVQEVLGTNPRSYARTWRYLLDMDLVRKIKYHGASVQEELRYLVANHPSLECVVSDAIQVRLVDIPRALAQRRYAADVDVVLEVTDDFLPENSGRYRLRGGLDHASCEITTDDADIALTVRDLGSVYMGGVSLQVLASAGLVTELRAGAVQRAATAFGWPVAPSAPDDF

Eis2 [3] = molecular target: T2, Eis2; assay: Michaelis-Menten acetylation kinetics with purified Eis2, DTNB free-thiol assay; assay type: biochemical
[4] = test system: NCC[C@H](O)C(=O)N[C@@H]1C[C@H](N)[C@@H](O[C@H]2O[C@H](CN)[C@@H](O)[C@H](O)[C@H]2O)[C@H](O)[C@H]1O[C@H]1O[C@H](CO)[C@@H](O)[C@H](N)[C@H]1O; assay: purified protein, by the assay type; set-up: Eis2 acetyltransferase kinetics, Michaelis-Menten fit for substrate
From the text: Consistent with previous findings, the aminoglycoside controls AMK and [compound left out] were also shown as substrates of Eis2 (ref. [47]), as well as CAM-NH2 and TAM-NH2. […] These findings highlight how specific chemical modifications to antibiotics govern substrate specificity and antimicrobial efficacy.

| IC50 [1] [µM] | Molecule | MIC (M. abscessus WT) [µg/mL] | CC50 at 72 h (in vitro) [µM] | also measured |
| --- | --- | --- | --- | --- |
|  | CC[C@H]1OC(=O)[C@H](C)[C@@H](O[C@H]2C[C@@](C)(OC)[C@@H](O)[C@H](C)O2)[C@H](C)[C@@H](O[C@@H]2O[C@H](C)C[C@H](N(C)C)[C@H]2O)[C@](C)(O)C[C@@H](C)C(=O)[C@H](C)[C@@H](O)[C@]1(C)O [ERY] | > 32 |  |  |
| 1.4 ± 0.7 | CS(=O)(=O)c1ccc([C@@H](O)[C@@H](CO)NC(=O)C(Cl)Cl)cc1 [Thiamphenicol] |  | > 200 |  |
|  | CC[C@H]1OC(=O)[C@H](C)[C@@H](O[C@H]2C[C@@](C)(OC)[C@@H](O)[C@H](C)O2)[C@H](C)[C@@H](O[C@@H]2O[C@H](C)C[C@H](N(C)C)[C@H]2O)[C@](C)(OC)C[C@@H](C)C(=O)[C@H](C)[C@@H](O)[C@]1(C)O [CLR] | 2 (≈ 2.67 µM) |  |  |
| 6.2 ± 1.6 | CC(=O)NC[C@H]1CN(c2ccc(N3CCOCC3)c(F)c2)C(=O)O1 [Linezolid] |  | > 200 |  |
| 4.7 ± 1.7 | CC(=O)N[C@H](CF)[C@H](O)c1ccc(S(C)(=O)=O)cc1 [FF-ac, florfenicol acetyl] |  | > 200 |  |
|  | NCC[C@H](O)C(=O)N[C@@H]1C[C@H](N)[C@@H](O[C@H]2O[C@H](CN)[C@@H](O)[C@H](O)[C@H]2O)[C@H](O)[C@H]1O[C@H]1O[C@H](CO)[C@@H](O)[C@H](N)[C@H]1O [AMK, amikacin] | 4 to 8 (≈ 6.83 to 13.7 µM) |  | Michaelis-Menten acetylation kinetics with purified Eis2, DTNB free-thiol assay (Eis2 [2]): the aminoglycoside controls AMK and hygromycin B were also shown as substrates of Eis2 |
| 5.5 ± 2.5 | O=C(N[C@H](CO)[C@H](O)c1ccc([N+](=O)[O-])cc1)C(Cl)Cl [Chloramphenicol] |  | > 200 |  |
|  | CN[C@@H]1[C@H](O)[C@H](NC)[C@H]2O[C@@]3(O)C(=O)C[C@@H](C)O[C@H]3O[C@@H]2[C@H]1O [SPC] | 512 (≈ 1540 µM) |  |  |
|  | Eis2 (Mycobacteroides abscessus ATCC 19977) |  |  | Km [4]: 232.6 ± 26 µM; Vmax [4]: 6 µM/min; kcat [4]: 4.7 ± 0.5 s⁻¹; kcat/Km [4]: 20000 ± 320 M⁻¹ s⁻¹ |
|  | O=C1CN(/N=C/c2ccc([N+](=O)[O-])o2)C(=O)N1 [Nitrofurantoin, nitrofurantoin] |  | 6.8 ± 0.3 |  |
| > 100 | CS(=O)(=O)c1ccc([C@@H](O)[C@H](N)CO)cc1 [TAM-NH2, thiamphenicol amine] |  | > 200 |  |
| > 100 | N[C@H](CO)[C@H](O)c1ccc([N+](=O)[O-])cc1 [CAM-NH2, chloramphenicol amine] |  | > 200 |  |
|  | CSc1ccc2c(c1)N(CCC1CCCCN1C)c1ccccc1S2 (stereo not shown) [Thioridazine, thioridazine] |  | 6.6 ± 0.3 |  |
|  | CC[C@H]1OC(=O)[C@H](C)[C@@H](O[C@H]2C[C@@](C)(OC)[C@@H](O)[C@H](C)O2)[C@H](C)[C@@H](O[C@@H]2O[C@H](C)C[C@H](N(C)C)[C@H]2O)[C@](C)(O)C[C@@H](C)CN(C)[C@H](C)[C@@H](O)[C@]1(C)O [AZITH] | > 32 |  |  |
|  | CC(=O)NC[C@H]1CN(c2ccc(N3CCOCC3)c(F)c2)C(=O)O1 [LZD] | 8 (≈ 23.7 µM) |  |  |
| 1.2 ± 0.2 | CS(=O)(=O)c1ccc([C@@H](O)[C@@H](CF)NC(=O)C(Cl)Cl)cc1 [Florfenicol] |  | > 200 |  |

| Molecule | IC50 [1] [µM] | MIC (M. abscessus WT) [µg/mL] | CC50 at 72 h (in vitro) [µM] | also measured |
| --- | --- | --- | --- | --- |
| CS(=O)(=O)c1ccc([C@@H](O)[C@H](N)CF)cc1 [FF-NH2, florfenicol amine] | > 100 | 62.5 to 125 (≈ 253 to 505 µM) | > 200 | Michaelis-Menten acetylation kinetics with purified Eis2, DTNB free-thiol assay (Eis2 [3]): kcat/KM 6.7 × 10^3 ± 5.1 × 10^2 |
